# Data published in ChEMBL document CHEMBL5331129, “Discovery of NAFLD-Improving Agents by Promoting the Degradation of Keap1” (J Med Chem, 2023).
# The source made the active and inactive calls. The rule behind the calls is not given here.
# How the values were obtained:
# [1] = target: T1, Protein cereblon/Kelch-like ECH-associated protein 1 (Mus musculus) (UniProt Q9Z2X8+Q8C7D2); assay: PROTAC activity at CRBN/Keap1 in mouse AML12 cells assessed as degradation of Keap1 protein level at 1 uM preincubated with CDDO followed by compound addition and incubated for 24 hrs by Western blotting analysis; assay type: cell-based
# T1 sequence (Q8C7D2 whole entry, looked up): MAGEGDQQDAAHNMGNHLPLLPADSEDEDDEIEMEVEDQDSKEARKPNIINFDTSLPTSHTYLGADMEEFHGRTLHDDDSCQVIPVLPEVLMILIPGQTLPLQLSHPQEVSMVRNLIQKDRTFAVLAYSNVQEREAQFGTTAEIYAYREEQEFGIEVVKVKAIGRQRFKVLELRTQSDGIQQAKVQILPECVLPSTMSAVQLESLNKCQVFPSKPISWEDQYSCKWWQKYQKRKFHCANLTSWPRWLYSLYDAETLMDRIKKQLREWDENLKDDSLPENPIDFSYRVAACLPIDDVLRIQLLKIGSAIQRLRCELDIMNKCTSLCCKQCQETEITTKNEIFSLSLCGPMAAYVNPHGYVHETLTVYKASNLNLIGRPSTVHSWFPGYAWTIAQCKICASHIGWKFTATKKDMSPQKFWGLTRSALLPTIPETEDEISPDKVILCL
# T1 sequence (Q9Z2X8 whole entry, looked up): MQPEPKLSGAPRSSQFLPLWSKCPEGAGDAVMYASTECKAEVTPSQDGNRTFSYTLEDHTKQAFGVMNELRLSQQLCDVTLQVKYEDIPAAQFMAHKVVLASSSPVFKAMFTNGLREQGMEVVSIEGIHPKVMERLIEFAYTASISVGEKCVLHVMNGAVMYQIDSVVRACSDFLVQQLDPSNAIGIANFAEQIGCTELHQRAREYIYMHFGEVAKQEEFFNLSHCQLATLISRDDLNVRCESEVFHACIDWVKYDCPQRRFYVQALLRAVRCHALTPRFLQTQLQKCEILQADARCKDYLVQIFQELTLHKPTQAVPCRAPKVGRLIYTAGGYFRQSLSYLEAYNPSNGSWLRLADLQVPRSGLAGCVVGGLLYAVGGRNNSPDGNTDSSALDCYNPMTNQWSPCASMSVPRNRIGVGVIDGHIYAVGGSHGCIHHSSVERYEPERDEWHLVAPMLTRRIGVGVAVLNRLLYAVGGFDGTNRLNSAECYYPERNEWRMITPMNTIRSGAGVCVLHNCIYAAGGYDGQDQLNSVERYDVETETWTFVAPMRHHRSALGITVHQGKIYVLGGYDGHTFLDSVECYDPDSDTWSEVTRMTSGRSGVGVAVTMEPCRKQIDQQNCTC
# Mus musculus [2] = assay: Antioxidant activity against MCD diet-induced oxidative stress in C57Bl/6 mouse model of NAFLD assessed as reduction of morphological change in liver at ip administrated for 4 weeks by hematoxylin and eosin staining based assay; assay type: functional, organism-based
# Mus musculus [3] = assay: Antioxidant activity against MCD diet-induced oxidative stress in C57Bl/6 mouse model of NAFLD assessed as reduction of serum TC level at 0.5 to 2 mg/kg,ip administrated for 4 weeks; assay type: functional, organism-based; details: dose 0.5-2 mg/kg
# Mus musculus [4] = assay: Antioxidant activity against MCD diet-induced oxidative stress in C57Bl/6 mouse model of NAFLD assessed as reduction of serum ALT level at 0.5 to 2 mg/kg,ip administrated for 4 weeks; assay type: functional, organism-based; details: dose 0.5-2 mg/kg
# Mus musculus [5] = assay: Antioxidant activity against MCD diet-induced oxidative stress in C57Bl/6 mouse model of NAFLD assessed as reduction of pericellular fibrosis in liver at ip administrated for 4 weeks by Sirius red staining based analysis; assay type: functional, organism-based
# [6] = target: T1, Protein cereblon/Kelch-like ECH-associated protein 1 (Mus musculus); assay: PROTAC activity at CRBN/Keap1 in mouse AML12 cells assessed as degradation of Keap1 protein incubated for 6 to 48 hrs by Western blotting analysis; assay type: cell-based; details: time 6-48 hrs
# AML12 [7] = assay: Cytotoxicity against mouse AML12 cells at 0.5 uM incubated for 24 hrs by MTT assay; assay type: toxicity, cell-based; details: aml12, 24 h
# AML12 [8] = assay: Antioxidant activity against free fatty acid induced oxidative stress in mouse AML12 cells assessed as reduction in intracellular lipid accumulation at 0.5 uM incubated for 24 hrs by Oil Red O staining based microscopic analysis; assay type: functional, cell-based
# Mus musculus [9] = assay: Antioxidant activity against MCD diet-induced oxidative stress in C57Bl/6 mouse model of NAFLD assessed as reduction of serum aminotransferase level at 0.5 to 2 mg/kg,ip administrated for 4 weeks; assay type: functional, organism-based; details: dose 0.5-2 mg/kg
# [10] = target: Protein cereblon/Kelch-like ECH-associated protein 1 (Mus musculus, UniProt Q9Z2X8+Q8C7D2); assay: PROTAC activity at CRBN/Keap1 in mouse AML12 cells assessed as degradation of Keap1 protein at 0.5 to 2 uM incubated for 48 hrs by Western blotting analysis; assay type: cell-based
# Protein cereblon/Kelch-like ECH-associated protein 1 (Mus musculus, UniProt Q9Z2X8+Q8C7D2), sequence (Q9Z2X8 whole entry): as the sequence (Q9Z2X8 whole entry, looked up) above
# Protein cereblon/Kelch-like ECH-associated protein 1 (Mus musculus, UniProt Q9Z2X8+Q8C7D2), sequence (Q8C7D2 whole entry): as the sequence (Q8C7D2 whole entry, looked up) above
# [11] = Toxicity in C57BL/6 mouse assessed as histopathological change in heart at 2 mg/kg,ip qd administrated for 4 weeks by hematoxylin and eosin staining based assay; assay type: organism-based; details: in vivo, 672 h
# AML12 [12] = assay: Antioxidant activity against free fatty acid induced oxidative stress in mouse AML12 cells assessed as downregulation of Keap1 protein expression level at 0.125 to 0.5 uM incubated for 24 hrs by immunofluorescence staining analysis; assay type: functional, cell-based; details: dose 0.125-0.5 µM
# [13] = Acute toxicity in C57BL/6 mouse assessed as histopathological change in liver at 20 mg/kg,ip qd administrated for 3 consecutive days and measured on day 4 by hematoxylin and eosin staining based assay; assay type: organism-based; details: in vivo
# AML12 [14] = assay: Antioxidant activity against free fatty acid induced oxidative stress in mouse AML12 cells assessed as upregulation of Nrf2 protein expression level at 0.125 to 0.5 uM incubated for 24 hrs by immunofluorescence staining analysis; assay type: functional, cell-based; details: dose 0.125-0.5 µM
# Mus musculus [15] = assay: Antioxidant activity against MCD diet-induced oxidative stress in C57Bl/6 mouse model of NAFLD assessed as increase in serum HDL-C level at ip administrated for 4 weeks; assay type: functional, organism-based
# Mus musculus [16] = assay: Antioxidant activity against MCD diet-induced oxidative stress in C57Bl/6 mouse model of NAFLD assessed as upregulation of liver NQO1 protein expression level at 0.5 to 2 mg/kg,ip administrated for 4 weeks by immunohistochemical staining assay; assay type: functional, organism-based; details: dose 0.5-2 mg/kg
# [17] = Toxicity in C57BL/6 mouse assessed as histopathological change in liver at 2 mg/kg,ip qd administrated for 4 weeks by hematoxylin and eosin staining based assay; assay type: organism-based; details: in vivo, 672 h
# Mus musculus [18] = assay: Antioxidant activity against MCD diet-induced oxidative stress in C57Bl/6 mouse model of NAFLD assessed as increase in GSH level in liver at 0.5 to 2 mg/kg,ip administrated for 4 weeks; assay type: functional, organism-based; details: dose 0.5-2 mg/kg
# [19] = Toxicity in MCD diet-induced oxidative stress in C57Bl/6 mouse model of NAFLD assessed as body weight loss at 2 mg/kg,ip administrated for 4 weeks […]; assay type: organism-based; details: in vivo, 672 h
# [20] = Cardiotoxicity in zebrafish at 10 uM observed at 48 hrs post fertilization; assay type: toxicity, Danio rerio
# AML12 [21] = assay: Antioxidant activity against free fatty acid induced oxidative stress in mouse AML12 cells assessed as upregulation of Nrf2 protein expression level at 0.125 to 0.5 uM incubated for 24 hrs by immunoblot analysis; assay type: functional, cell-based; details: dose 0.125-0.5 µM
# Mus musculus [22] = assay: Antioxidant activity against MCD diet-induced oxidative stress in C57Bl/6 mouse model of NAFLD assessed as upregulation of liver Nrf2 protein expression level at 0.5 to 2 mg/kg,ip administrated for 4 weeks by immunofluorescence staining analysis; assay type: functional, organism-based; details: dose 0.5-2 mg/kg
# AML12 [23] = assay: Antioxidant activity against free fatty acid induced oxidative stress in mouse AML12 cells assessed as reduction in triglyceride level at 0.5 uM incubated for 24 hrs; assay type: functional, cell-based
# AML12 [24] = assay: Antioxidant activity against free fatty acid induced oxidative stress in mouse AML12 cells assessed as upregulation of NQO1 protein expression level at 0.125 to 0.5 uM incubated for 24 hrs by immunoblot analysis; assay type: functional, cell-based; details: dose 0.125-0.5 µM
# [25] = target: Protein cereblon/Kelch-like ECH-associated protein 1 (Mus musculus, UniProt Q8C7D2+Q9Z2X8); assay: PROTAC activity at CRBN/Keap1 in mouse AML12 cells assessed as reduction of Keap1 protein incubated for 24 hrs by Western blotting analysis; assay type: cell-based
# Protein cereblon/Kelch-like ECH-associated protein 1 (Mus musculus, UniProt Q8C7D2+Q9Z2X8), sequence (Q9Z2X8 whole entry): as the sequence (Q9Z2X8 whole entry, looked up) above
# Protein cereblon/Kelch-like ECH-associated protein 1 (Mus musculus, UniProt Q8C7D2+Q9Z2X8), sequence (Q8C7D2 whole entry): as the sequence (Q8C7D2 whole entry, looked up) above
# AML12 [26] = assay: Antioxidant activity against free fatty acid induced oxidative stress in mouse AML12 cells assessed as upregulation of HO-1 protein expression level at 0.125 to 0.5 uM incubated for 24 hrs by immunoblot analysis; assay type: functional, cell-based; details: dose 0.125-0.5 µM
# [27] = target: T1, Protein cereblon/Kelch-like ECH-associated protein 1 (Mus musculus); assay: PROTAC activity at CRBN/Keap1 in mouse AML12 cells assessed as degradation of Keap1 protein at 0.5 to 2 uM incubated for 24 hrs by Western blotting analysis; assay type: cell-based; details: dose 0.5-2 µM
# Mus musculus [28] = assay: Antioxidant activity against MCD diet-induced oxidative stress in C57Bl/6 mouse model of NAFLD assessed as reduction of serum TG level at 0.5 to 2 mg/kg,ip administrated for 4 weeks; assay type: functional, organism-based; details: dose 0.5-2 mg/kg
# [29] = Toxicity in C57BL/6 mouse assessed as change in body weight at 2 mg/kg,ip qd administrated for 4 weeks; assay type: organism-based; details: in vivo, 672 h
# [30] = Acute toxicity in C57BL/6 mouse assessed as histopathological change in spleen at 20 mg/kg,ip qd administrated for 3 consecutive days and measured on day 4 by hematoxylin and eosin staining based assay; assay type: organism-based; details: in vivo
# AML12 [31] = assay: Antioxidant activity against free fatty acid induced oxidative stress in mouse AML12 cells assessed as reduction in total cholesterol level at 0.5 uM incubated for 24 hrs; assay type: functional, cell-based
# Mus musculus [32] = assay: Antioxidant activity against MCD diet-induced oxidative stress in C57Bl/6 mouse model of NAFLD assessed as downregulation of liver Keap1 protein expression level at 0.5 to 2 mg/kg,ip administrated for 4 weeks by immunofluorescence staining analysis; assay type: functional, organism-based; details: dose 0.5-2 mg/kg
structure (smiles),measurement,setting,value
"CC1(C)CC[C@]2(C(=O)NCCCCCNc3cccc4c3C(=O)N(C3CCC(=O)NC3=O)C4=O)CC[C@]3(C)[C@H](C(=O)C=C4C5(C)C=C(C#N)C(=O)C(C)(C)[C@@H]5CC[C@]43C)[C@@H]2C1 (single isomer, unassigned)",Activity,[1],inactive
same,Activity,Mus musculus [2],Dose-Dependent Effect
same,Activity,Mus musculus [3],Active
same,Activity,Mus musculus [4],Active
same,Activity,Mus musculus [5],Dose-Dependent Effect
same,Activity,[6],Dose-Dependent Effect
same,Activity,AML12 [7],Non-Toxic
same,Activity,AML12 [8],Active
same,Activity,Mus musculus [9],Active
same,DC50,[10],0.21 µM
same,Activity,[11],Non-Toxic
same,Activity,AML12 [12],Active
same,Activity,[13],Non-Toxic
same,Activity,AML12 [14],Active
same,Activity,Mus musculus [15],Dose-Dependent Effect
same,Activity,Mus musculus [16],Dose-Dependent Effect
same,Activity,[17],Non-Toxic
same,Activity,Mus musculus [18],Active
same,Activity,[19],Non-Toxic
same,Activity,[20],Non-Toxic
same,Activity,AML12 [21],Active
same,Activity,Mus musculus [22],Dose-Dependent Effect
same,Activity,AML12 [23],Active
same,Activity,AML12 [24],Active
same,IC50,[25],18.2 µM
same,Activity,AML12 [26],Active
same,Activity,[27],Active
same,Activity,Mus musculus [28],Active
same,Activity,[29],Toxic
same,Activity,[30],Non-Toxic
same,Activity,AML12 [31],inactive
same,Activity,Mus musculus [32],Dose-Dependent Effect
